Assay results taken from patent publication US7981903B2, “2-[2-{phenylamino}-1H-pyrrolo[2,3-D]pyrimidin-4-yl)amino] benzamide derivatives as IGF-1R inhibitors for the treatment of cancer” (GlaxoSmithKline LLC, priority 2007, dated 2011).

Experiments:
[1] = tested on: NCI-H929; experiment: Inhibition of cell proliferation (CellTiter-Glo or InCell analyzer), NCI-H929; assay type: cell-based; conditions: Homo sapiens, 72 h / 3 days, values given as IC50 category
In short: In one

[2] = tested on: Colo205; experiment: Inhibition of cell proliferation (CellTiter-Glo or InCell analyzer), Colo205; assay type: cell-based; conditions: Homo sapiens, COLO 205, 72 h / 3 days, values given as IC50 category
In short: In one

[3] = biological target: T1, NIH-3T3 cells overexpressing human IR (Homo sapiens, UniProt P06213); experiment: IR cellular autophosphorylation (DELFIA); assay type: cell-based; conditions: 2 h compound, insulin 3 ug/ml for 15 minutes, IC50 category
T1 construct: expressed in transfected cells; host or cells: NIH-3T3 (mouse fibroblasts)
In short: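 Receptor autophosphorylation measured by DELFIA, capturing IGF-1R or IRβ and detecting with europium anti-pTyr, reported as percent of IGF-1- or insulin-stimulated signal. Compounds (30 uM to 1.5 nM) added 2 h before ligand, then 15 min stimulation (IGF-1 30 ng/ml or insulin 3 ug/ml).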

[4] = biological target: ALK (Homo sapiens, UniProt Q9UM73); experiment: ALK enzyme assay (HTRF); assay type: biochemical; conditions: 0.25 nM ALK, 15.0 μM ATP, values given as pIC50 category
In short: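 Final compound range 0.00017 to 10 μM (twelve 1:3 dilutions). Kinase reaction with ATP and biotinylated synthetic peptide runs 120 min at 20° C, stopped with EDTA; phosphotyrosine detected by HTRF after 60 min. Inhibition referenced to DMSO (1%) and EDTA (0.1 M) controls, curve-fitted.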

T1 sequence (P06213 28-1382): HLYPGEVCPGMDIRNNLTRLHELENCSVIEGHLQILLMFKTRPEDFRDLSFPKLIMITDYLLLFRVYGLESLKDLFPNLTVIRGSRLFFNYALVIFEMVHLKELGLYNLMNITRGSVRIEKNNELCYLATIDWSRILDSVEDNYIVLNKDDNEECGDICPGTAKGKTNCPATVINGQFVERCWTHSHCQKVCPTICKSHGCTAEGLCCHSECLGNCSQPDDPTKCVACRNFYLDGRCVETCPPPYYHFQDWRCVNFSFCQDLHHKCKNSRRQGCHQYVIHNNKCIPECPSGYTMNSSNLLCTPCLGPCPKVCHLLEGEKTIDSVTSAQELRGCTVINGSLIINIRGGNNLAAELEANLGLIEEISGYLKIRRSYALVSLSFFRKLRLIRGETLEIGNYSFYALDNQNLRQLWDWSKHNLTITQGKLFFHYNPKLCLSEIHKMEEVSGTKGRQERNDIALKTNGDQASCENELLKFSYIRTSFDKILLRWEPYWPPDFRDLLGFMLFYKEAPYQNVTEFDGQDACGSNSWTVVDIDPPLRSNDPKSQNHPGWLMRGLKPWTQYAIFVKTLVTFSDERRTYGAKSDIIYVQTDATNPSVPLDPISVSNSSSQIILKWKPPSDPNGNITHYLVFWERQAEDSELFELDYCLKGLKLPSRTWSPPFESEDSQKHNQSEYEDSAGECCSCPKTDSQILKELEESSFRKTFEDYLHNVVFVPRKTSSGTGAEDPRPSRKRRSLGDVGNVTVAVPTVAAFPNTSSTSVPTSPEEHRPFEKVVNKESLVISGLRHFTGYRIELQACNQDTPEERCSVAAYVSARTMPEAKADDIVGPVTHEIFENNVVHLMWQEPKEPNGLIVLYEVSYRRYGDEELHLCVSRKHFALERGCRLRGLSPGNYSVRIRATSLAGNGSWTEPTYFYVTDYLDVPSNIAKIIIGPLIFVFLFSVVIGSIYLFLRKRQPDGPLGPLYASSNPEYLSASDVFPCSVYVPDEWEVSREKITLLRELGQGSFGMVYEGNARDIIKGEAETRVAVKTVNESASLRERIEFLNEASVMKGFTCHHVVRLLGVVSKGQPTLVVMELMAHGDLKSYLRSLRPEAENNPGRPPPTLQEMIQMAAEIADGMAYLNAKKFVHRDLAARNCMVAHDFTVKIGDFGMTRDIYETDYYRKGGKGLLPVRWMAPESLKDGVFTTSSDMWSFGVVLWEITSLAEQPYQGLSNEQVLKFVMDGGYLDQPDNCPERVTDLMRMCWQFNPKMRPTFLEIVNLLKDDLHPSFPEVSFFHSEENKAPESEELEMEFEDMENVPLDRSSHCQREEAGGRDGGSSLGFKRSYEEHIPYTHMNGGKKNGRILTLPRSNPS
ALK, sequence (Q9UM73 19-1620): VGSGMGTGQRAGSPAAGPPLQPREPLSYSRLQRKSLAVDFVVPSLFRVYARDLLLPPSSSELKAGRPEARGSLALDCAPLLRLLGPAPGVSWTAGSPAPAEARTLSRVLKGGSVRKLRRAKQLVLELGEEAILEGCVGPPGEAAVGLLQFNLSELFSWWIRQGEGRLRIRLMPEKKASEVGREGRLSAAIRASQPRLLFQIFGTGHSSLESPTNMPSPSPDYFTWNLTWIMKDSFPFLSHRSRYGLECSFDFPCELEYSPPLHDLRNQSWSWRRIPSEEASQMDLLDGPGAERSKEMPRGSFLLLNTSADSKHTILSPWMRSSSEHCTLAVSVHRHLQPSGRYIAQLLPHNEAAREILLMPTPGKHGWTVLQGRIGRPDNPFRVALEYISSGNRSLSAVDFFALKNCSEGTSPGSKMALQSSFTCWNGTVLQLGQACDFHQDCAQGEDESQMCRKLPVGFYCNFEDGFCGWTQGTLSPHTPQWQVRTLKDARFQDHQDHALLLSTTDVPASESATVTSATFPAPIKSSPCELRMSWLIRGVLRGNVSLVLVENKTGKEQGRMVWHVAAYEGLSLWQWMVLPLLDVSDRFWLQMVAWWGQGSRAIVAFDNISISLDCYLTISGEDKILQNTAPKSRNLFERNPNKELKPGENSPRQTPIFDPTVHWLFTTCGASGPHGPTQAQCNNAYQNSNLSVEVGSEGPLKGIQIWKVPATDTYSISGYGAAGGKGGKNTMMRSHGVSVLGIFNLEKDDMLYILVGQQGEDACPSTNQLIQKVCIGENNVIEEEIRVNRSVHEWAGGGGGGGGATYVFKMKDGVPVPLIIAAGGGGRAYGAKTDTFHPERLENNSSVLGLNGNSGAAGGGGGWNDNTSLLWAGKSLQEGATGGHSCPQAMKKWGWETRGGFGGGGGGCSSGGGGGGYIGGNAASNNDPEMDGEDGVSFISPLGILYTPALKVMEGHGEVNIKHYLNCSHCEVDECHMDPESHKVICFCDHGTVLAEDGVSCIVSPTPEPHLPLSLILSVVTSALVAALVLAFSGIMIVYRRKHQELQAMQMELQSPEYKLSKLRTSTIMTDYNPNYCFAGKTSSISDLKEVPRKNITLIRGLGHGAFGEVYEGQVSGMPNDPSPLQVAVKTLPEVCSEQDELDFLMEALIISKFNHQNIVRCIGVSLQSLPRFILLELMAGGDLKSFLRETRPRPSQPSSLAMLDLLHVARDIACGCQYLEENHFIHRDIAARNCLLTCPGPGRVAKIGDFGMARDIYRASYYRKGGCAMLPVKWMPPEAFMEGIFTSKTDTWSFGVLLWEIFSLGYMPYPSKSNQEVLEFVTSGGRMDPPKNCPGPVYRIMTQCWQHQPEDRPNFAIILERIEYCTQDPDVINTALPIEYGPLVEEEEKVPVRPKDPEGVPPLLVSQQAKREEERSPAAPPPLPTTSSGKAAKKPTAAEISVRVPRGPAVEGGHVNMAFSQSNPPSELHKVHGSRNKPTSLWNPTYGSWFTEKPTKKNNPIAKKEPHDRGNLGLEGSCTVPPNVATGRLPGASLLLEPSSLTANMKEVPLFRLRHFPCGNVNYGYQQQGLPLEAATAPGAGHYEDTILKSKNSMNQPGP

| IC50 [1] [nM] | IC50 [2] [nM] | IC50 [3] [nM] | IC50 [4] [nM] | SMILES |
| --- | --- | --- | --- | --- |
| < 250 | 250 to 1000 | < 100 | 1.26 to 3.98 | COc1cc2c(cc1Nc1nc(Nc3cccc(F)c3C(N)=O)c3cc[nH]c3n1)N(C(C)=O)CC2 [Example 134, 2-[(2-{[1-acetyl-5-(methyloxy)-2,3-dihydro-1H-indol-6-yl]amino}-1H-pyrrolo[2,3-d]pyrimidin-4-yl)amino]-6-fluorobenzamide] |
| < 250 | < 250 | < 100 | 0.251 to 1 | COc1cc2c(cc1Nc1nc(Nc3cc(F)cc(F)c3C(N)=O)c3cc[nH]c3n1)N(C(=O)CN1CCCC1)CCC2 [Example 219, 2,4-difluoro-6-[(2-{[6-(methyloxy)-1-(1-pyrrolidinylacetyl)-1,2,3,4-tetrahydro-7-quinolinyl]amino}-1H-pyrrolo[2,3-d]pyrimidin-4-yl)amino]benzamide] |
| 250 to 1000 | > 1000 | > 500 | 5.01 to 200 | CNC(=O)c1c(F)cccc1Nc1nc(Nc2cc3c(cc2OC)CCN3C(=O)COC)nc2[nH]ccc12 [Example 150, 2-fluoro-N-methyl-6-{[2-({5-(methyloxy)-1-[(methyloxy)acetyl]-2,3-dihydro-1H-indol-6-yl}amino)-1H-pyrrolo[2,3-d]pyrimidin-4-yl]amino}benzamide] |
| 250 to 1000 | 250 to 1000 | > 500 | 1.26 to 3.98 | COc1cc(N2CCCN(S(C)(=O)=O)CC2)ccc1Nc1nc(Nc2cccc(F)c2C(N)=O)c2cc[nH]c2n1 [Example 207, 2-fluoro-6-{[2-({2-(methyloxy)-4-[4-(methylsulfonyl)hexahydro-1H-1,4-diazepin-1-yl]phenyl}amino)-1H-pyrrolo[2,3-d]pyrimidin-4-yl]amino}benzamide] |
| 250 to 1000 | > 1000 | 100 to 500 | 5.01 to 200 | COc1cc2c(cc1Nc1nc(Nc3cccc(F)c3C(N)=O)c3cc[nH]c3n1)CN(C(=O)CCN(C)C)CC2 [Example 230, 2-[(2-{[2-(N,N-dimethyl-β-alanyl)-6-(methyloxy)-1,2,3,4-tetrahydro-7-isoquinolinyl]amino}-1H-pyrrolo[2,3-d]pyrimidin-4-yl)amino]-6-fluorobenzamide] |
| < 250 | 250 to 1000 | < 100 | 1.26 to 3.98 | CNC(=O)c1c(F)cc(F)cc1Nc1nc(Nc2cc3c(cc2OC)CCCN3C(=O)CN2CCCC2)nc2[nH]ccc12 [Example 221, 2,4-difluoro-N-methyl-6-[(2-{[6-(methyloxy)-1-(1-pyrrolidinylacetyl)-1,2,3,4-tetrahydro-7-quinolinyl]amino}-1H-pyrrolo[2,3-d]pyrimidin-4-yl)amino]benzamide] |
| > 1000 | > 1000 | 100 to 500 | 5.01 to 200 | COc1cc2c(cc1Nc1nc(Nc3cccc(F)c3C(N)=O)c3cc(C)[nH]c3n1)N(C(=O)CN(C)C)CC2 [Example 262, 2-[(2-{[1-(N,N-dimethylglycyl)-5-(methyloxy)-2,3-dihydro-1H-indol-6-yl]amino}-6-methyl-1H-pyrrolo[2,3-d]pyrimidin-4-yl)amino]-6-fluorobenzamide] |
| > 1000 | > 1000 | > 500 | 5.01 to 200 | COc1cc2c(cc1Nc1nc(Nc3cccc(F)c3C(N)=O)c3cc[nH]c3n1)NCCC2 [Example 211, 2-fluoro-6-[(2-{[6-(methyloxy)-1,2,3,4-tetrahydro-7-quinolinyl]amino}-1H-pyrrolo[2,3-d]pyrimidin-4-yl)amino]benzamide] |
| < 250 | < 250 | < 100 | 5.01 to 200 | CCN(C)CC(=O)N1CCCc2cc(OC)c(Nc3nc(Nc4cccc(F)c4C(=O)NC)c4cc[nH]c4n3)cc21 [Example 132, 2-[(2{-[1-(N-ethyl-N-methylglycyl)-6-(methyloxy)-1,2,3,4-tetrahydro-7-quinolinyl]amino}-1H-pyrrolo[2,3-d]pyrimidin-4-yl)amino]-6-fluoro-N-methylbenzamide] |
| > 1000 | > 1000 | > 500 | 5.01 to 200 | COc1cc2c(cc1Nc1nc(Nc3cc(F)cc(F)c3C(N)=O)c3cc[nH]c3n1)NCCC2 [Example 220, 2,4-difluoro-6-[(2-{[6-(methyloxy)-1,2,3,4-tetrahydro-7-quinolinyl]amino}-1H-pyrrolo[2,3-d]pyrimidin-4-yl)amino]benzamide] |
| > 1000 | > 1000 | > 500 | 5.01 to 200 | COc1cc2c(cc1Nc1nc(Nc3cccc(F)c3C(N)=O)c3cc[nH]c3n1)N(C(=O)Cn1ccnc1)CC2 [Example 145, 2-fluoro-6-[(2-{[1-(1H-imidazol-1-ylacetyl)-5-(methyloxy)-2,3-dihydro-1H-indol-6-yl]amino}-1H-pyrrolo[2,3-d]pyrimidin-4-yl)amino]benzamide] |
| 250 to 1000 | 250 to 1000 | 100 to 500 | 0.251 to 1 | CCNC(=O)c1c(F)cc(F)cc1Nc1nc(Nc2cc3c(cc2OC)CCN3C(=O)CN(C)C)nc2[nH]ccc12 [Example 151, 2-[(2-{[1-(N,N-dimethylglycyl)-5-(methyloxy)-2,3-dihydro-1H-indol-6-yl]amino}-1H-pyrrolo[2,3-d]pyrimidin-4-yl)amino]-N-ethyl-4,6-difluorobenzamide] |
| < 250 | < 250 | 100 to 500 | 1.26 to 3.98 | COc1cc(OCCCN2CCN(C)CC2)ccc1Nc1nc(Nc2cccc(F)c2C(N)=O)c2cc[nH]c2n1 [Example 205, 2-fluoro-6-({2-[(2-(methyloxy)-4-{[3-(4-methyl-1-piperazinyl)propyl]oxy}phenyl)amino]-1H-pyrrolo[2,3-d]pyrimidin-4-yl}amino)benzamide] |
| 250 to 1000 | > 1000 | > 500 | 5.01 to 200 | COc1cc2c(cc1Nc1nc(Nc3cccc(F)c3C(N)=O)c3cc[nH]c3n1)N(C(=O)CN(C)OC)CC2 [Example 144, 2-fluoro-6-[(2-{[1-[N-methyl-N-(methyloxy)glycyl]-5-(methyloxy)-2,3-dihydro-1H-indol-6-yl]amino}-1H-pyrrolo[2,3-d]pyrimidin-4-yl)amino]benzamide] |
| < 250 | < 250 | < 100 | 1.26 to 3.98 | COc1cc2c(cc1Nc1nc(Nc3cc(F)cc(F)c3C(N)=O)c3cc[nH]c3n1)N(C(=O)CN(C)C)CC2 [Example 189, 2-[(2-{[1-(N,N-dimethylglycyl)-5-(methyloxy)-2,3-dihydro-1H-indol-6-yl]amino}-1H-pyrrolo[2,3-d]pyrimidin-4-yl)amino]-4,6-difluorobenzamide] |
